Data published in PMC5469811, “Identification of GXXXXG motif in Chrysophsin-1 and its implication in the design of analogs with cell-selective antimicrobial and anti-endotoxin activities” (Scientific Reports, 2017).
Values after ≈ are worked out from the molar mass of the structure shown. Residues, ends and D or L forms follow the SMILES beside them.

Experiments:
[1] = test system: Bacillus subtilis (ATCC 6633); assay: microbe, parasite or virus in culture; type: cell-based; settings: ATCC 6633; read-out: Minimum inhibitory concentration (MIC)
Description: (§1) Antibacterial assay against various Gram-positive and Gram-negative strains of bacteria was performed by the serial two-fold dilution method according to the previously reported procedure, [36]. The antibacterial assays were repeated thrice and the averages of these MIC values were reported.

[2] = test system: Escherichia coli (ATCC 25922); assay: microbe, parasite or virus in culture; type: cell-based; settings: ATCC 25922; read-out: Minimum inhibitory concentration (MIC)
Description: as §1

[3] = test system: Escherichia coli (ATCC 9637); assay: microbe, parasite or virus in culture; type: cell-based; settings: ATCC 9637; read-out: Minimum inhibitory concentration (MIC)
Description: as §1

[4] = test system: Klebsiella pneumoniae (ATCC 27736); assay: microbe, parasite or virus in culture; type: cell-based; settings: ATCC 27736; read-out: Minimum inhibitory concentration (MIC)
Description: as §1

[5] = test system: Pseudomonas aeruginosa (ATCC BAA-427); assay: microbe, parasite or virus in culture; type: cell-based; settings: ATCC BAA-427; read-out: Minimum inhibitory concentration (MIC)
Description: as §1

[6] = test system: Staphylococcus aureus (ATCC 25923); assay: microbe, parasite or virus in culture; type: cell-based; settings: ATCC 25923; read-out: Minimum inhibitory concentration (MIC)
Description: as §1

[7] = test system: Staphylococcus aureus (ATCC 29213); assay: microbe, parasite or virus in culture; type: cell-based; settings: ATCC 29213; read-out: Minimum inhibitory concentration (MIC)
Description: as §1

[8] = test system: Staphylococcus aureus (ATCC 33592) Methicillin resistant Genatmicin resistant; assay: microbe, parasite or virus in culture; type: cell-based; settings: ATCC 33592; read-out: Minimum inhibitory concentration (MIC)
Description: as §1

[9] = test system: Staphylococcus aureus (ATCC 700698 MRSA); assay: microbe, parasite or virus in culture; type: cell-based; settings: ATCC 700698; read-out: Minimum inhibitory concentration (MIC)
Description: as §1

[10] = test system: Staphylococcus aureus (ATCC 700699 MRSA); assay: microbe, parasite or virus in culture; type: cell-based; settings: ATCC 700699; read-out: Minimum inhibitory concentration (MIC)
Description: as §1

[11] = test system: Sporothrix schenckii (Patient isolates); assay: microbe, parasite or virus in culture; type: cell-based; settings: 48 h; read-out: Minimum inhibitory concentration (MIC)
E. coli (ATCC 25922) = type: cell-based, Escherichia coli; settings: ATCC 25922, 1 h
Description: (§2) E. coli ATCC25922 was grown to 10^6 CFU/ml in fresh MH broth with various divalent and monovalent salts at their physiological concentrations. Serial dilutions of chrysophsin-1 and its variants prepared with the same MH broth were added to the E. coli ATCC 25922 suspensions. The bacteria were incubated at 37 °C in a shaking incubator for 18 h and the MIC values of individual peptides against E. coli ATCC 25922 were determined. Thermal tolerance of Chrysophsin-1 and its variants was checked by incubating the peptides at 4 °C, 60 °C and 90 °C for 1 h prior to MIC determination. The antibacterial activity in presence of serum was carried out by adding a final concentration of 10% fetal bovine serum in the assay diluents containing 0.4% BSA, 0.02% glacial acetic acid. The subsequent steps in both the experiments were consistent with the MIC determination method.

E. coli ATCC 25922 [12] = type: cell-based, Escherichia coli; settings: ATCC 25922, 18 h
Description: as §2

S. aureus (ATCC 25923) = type: cell-based, Staphylococcus aureus; settings: ATCC 25923, 1 h
Description: as §2

E. coli ATCC 25922 [13] = assay: Synergy with conventional antibiotics, checkerboard titration; type: cell-based, Escherichia coli
Description: The checkerboard titration method was followed to check the synergy of peptides with other antibiotics. First, 2-fold serial dilutions of the antibiotics and antimicrobial peptides were prepared. Subsequently, 50 μl each of different concentrations of antibiotics and of antimicrobial peptides was mixed and added into 100 μl of log phase bacteria culture in a 96-well plate. The plates were then incubated at 37 °C for 24 h. The fractional inhibitory concentration (FIC) index (FICI) was calculated as follows[39]: FICI=(MICofdrugAincombination)/(MICofdrugAalone)+(MICofdrugBincombination)/(MICofdrugB): FICI < 0.5 is considered to indicate synergy; 0.5 < FICI < 1.0 is considered additive; 1.0 < FICI < 4.0 is considered indifferent; and FICI > 4.0 is considered antagonism.

[14] = test system: BALB/c mice challenged with lethal dose of LPS; assay: Anti-LPS survival assay; type: in vivo, mouse; settings: LPS 15 mgKg−1 i.p. plus peptide single dose 5 mgKg−1, 7 days, five mice per group, LPS-only mice all died within 24 h
Description: (§3) For survival assay, mice were challenged intraperitoneally with LPS at a lethal dose of 15 mgKg^−1 E. coli 0111:B4[5]. Control mice were injected with an equal volume of PBS. G13P-Chr-1 at a single dose of 5 mgKg^−1 was injected in the mice groups that were already administered with 15 mgKg^−1 of LPS. Each group contained five mice. The mortality of mice was monitored up to 7 days and weight change was monitored every day. The peptide G13P-Chr-1 only was also injected in two groups of mice at 5 mgKg^−1 and 10 mgKg^−1 to check any mortality in mice by peptide only treatment.

BALB/c mice = assay: In vivo toxicity of peptide alone; design: species or system mouse; settings: peptide alone 5 and 10 mgKg−1 i.p., seven days, five animals
Description: as §3

[15] = test system: TNF-α in serum of BALB/c mice injected with E. coli ATCC 25922; assay: In vivo TNF-α production after E. coli infection; settings: BALB/c mice injected with mid-logarithmic phase E. coli ATCC 25922; two hours post infection; ELISA; versus untreated group
Description: Serum was isolated from the blood obtained by bleeding the mice retro-orbitally two hours post infection and ELISA was performed to determine the amount of TNF-α produced in the untreated group and the peptide-treated group.

`CC[C@H](C)[C@H](NC(=O)[C@H](C)NC(=O)[C@H](CCCCN)NC(=O)[C@@H]1CCCN1C(=O)[C@H](C)NC(=O)[C@H](Cc1c[nH]cn1)NC(=O)[C@@H](NC(=O)[C@H](C)NC(=O)CNC(=O)[C@H](CCCCN)NC(=O)[C@@H](NC(=O)[C@H](CC(C)C)NC(=O)[C@H](Cc1c[nH]c2ccccc12)NC(=O)CNC(=O)[C@H](Cc1ccccc1)NC(=O)[C@@H](N)Cc1ccccc1)[C@@H](C)CC)[C@@H](C)CC)C(=O)N[C@@H](Cc1c[nH]cn1)C(=O)NCC(=O)N[C@@H](CC(C)C)C(=O)N[C@H](C(=O)N[C@@H](Cc1c[nH]cn1)C(=O)N[C@@H](CCCNC(=N)N)C(=O)N[C@@H](CCCNC(=N)N)C(=O)N[C@@H](CCCNC(=N)N)C(=O)N[C@@H](Cc1c[nH]cn1)C(N)=O)[C@@H](C)CC` [Peptide G13P-Chr-1] (H-FFGWLIKGAIHAPKAIHGLIHRRRH-NH2) showed an MIC [1] of 3 µM (≈ 8.79 µg/mL), an MIC [2] of 5 µM (≈ 14.7 µg/mL) and an MIC [3] of 3 µM (≈ 8.79 µg/mL). It also gave an MIC [4] of 6.8 µM (≈ 19.9 µg/mL), an MIC [5] of 6.8 µM (≈ 19.9 µg/mL) and an MIC [6] of 3 µM (≈ 8.79 µg/mL). It also gave an MIC [7] of 1.6 µM (≈ 4.69 µg/mL), an MIC [8] of 1.6 µM (≈ 4.69 µg/mL) and an MIC [9] of 3 µM (≈ 8.79 µg/mL). The MIC [10] was 1.6 µM (≈ 4.69 µg/mL), the MIC [11] was 27.2 µM (≈ 79.7 µg/mL) and the “Antibacterial activity (MIC) after incubating peptide at 4 °C” value (E. coli (ATCC 25922)) was 5 µM. For the same molecule, the “Antibacterial activity (MIC) after incubating peptide at 60 °C” value (E. coli (ATCC 25922)) was 8.6 µM, the “Antibacterial activity (MIC) after incubating peptide at 90 °C” value (E. coli (ATCC 25922)) was 12.3 µM and the “Antibacterial activity (MIC) in the presence of 10% FBS” value (E. coli ATCC 25922 [12]) was 8.6 µM. The “Antibacterial activity (MIC) in the presence of FeCl3” value (E. coli ATCC 25922 [12]) was 4.1 µM, the “Antibacterial activity (MIC) in the presence of KCl” value (E. coli ATCC 25922 [12]) was 4.3 µM and the “Antibacterial activity (MIC) in the presence of MgCl2” value (E. coli ATCC 25922 [12]) was 4.3 µM. For the same molecule, the “Antibacterial activity (MIC) in the presence of NH4Cl” value (E. coli ATCC 25922 [12]) was 2.0 µM, the “Antibacterial activity (MIC) in the presence of NaCl” value (E. coli ATCC 25922 [12]) was 8.6 µM and the “Antibacterial activity (MIC) after incubating peptide at 4 °C” value (S. aureus (ATCC 25923)) was 3 µM. The “Antibacterial activity (MIC) after incubating peptide at 60 °C” value (S. aureus (ATCC 25923)) was 13 µM, the “Antibacterial activity (MIC) after incubating peptide at 90 °C” value (S. aureus (ATCC 25923)) was 17.3 µM and the “interaction of peptide with chloramphenicol (by FICI)” value (E. coli ATCC 25922 [13]) was “synergy (FICI < 0.5 is considered to indicate synergy)”. For the same molecule, the survival of mice [14] was 40%, the “survival of mice (in vivo cytotoxicity)” value (BALB/c mice) was 100% and the “TNF-α production in serum” value [15] was “significant reduction”.
